This experiment has as its target Sodium channel protein type 9 subunit alpha (Homo sapiens, UniProt Q15858). Briefly: Inhibition of human Nav1.7 expressed in HEK293 cells at holding potential of -125 mV […] by patchxpress-based electrophysiology assay. In kind it is cell-based.

Sodium channel protein type 9 subunit alpha, sequence (Q15858 whole entry): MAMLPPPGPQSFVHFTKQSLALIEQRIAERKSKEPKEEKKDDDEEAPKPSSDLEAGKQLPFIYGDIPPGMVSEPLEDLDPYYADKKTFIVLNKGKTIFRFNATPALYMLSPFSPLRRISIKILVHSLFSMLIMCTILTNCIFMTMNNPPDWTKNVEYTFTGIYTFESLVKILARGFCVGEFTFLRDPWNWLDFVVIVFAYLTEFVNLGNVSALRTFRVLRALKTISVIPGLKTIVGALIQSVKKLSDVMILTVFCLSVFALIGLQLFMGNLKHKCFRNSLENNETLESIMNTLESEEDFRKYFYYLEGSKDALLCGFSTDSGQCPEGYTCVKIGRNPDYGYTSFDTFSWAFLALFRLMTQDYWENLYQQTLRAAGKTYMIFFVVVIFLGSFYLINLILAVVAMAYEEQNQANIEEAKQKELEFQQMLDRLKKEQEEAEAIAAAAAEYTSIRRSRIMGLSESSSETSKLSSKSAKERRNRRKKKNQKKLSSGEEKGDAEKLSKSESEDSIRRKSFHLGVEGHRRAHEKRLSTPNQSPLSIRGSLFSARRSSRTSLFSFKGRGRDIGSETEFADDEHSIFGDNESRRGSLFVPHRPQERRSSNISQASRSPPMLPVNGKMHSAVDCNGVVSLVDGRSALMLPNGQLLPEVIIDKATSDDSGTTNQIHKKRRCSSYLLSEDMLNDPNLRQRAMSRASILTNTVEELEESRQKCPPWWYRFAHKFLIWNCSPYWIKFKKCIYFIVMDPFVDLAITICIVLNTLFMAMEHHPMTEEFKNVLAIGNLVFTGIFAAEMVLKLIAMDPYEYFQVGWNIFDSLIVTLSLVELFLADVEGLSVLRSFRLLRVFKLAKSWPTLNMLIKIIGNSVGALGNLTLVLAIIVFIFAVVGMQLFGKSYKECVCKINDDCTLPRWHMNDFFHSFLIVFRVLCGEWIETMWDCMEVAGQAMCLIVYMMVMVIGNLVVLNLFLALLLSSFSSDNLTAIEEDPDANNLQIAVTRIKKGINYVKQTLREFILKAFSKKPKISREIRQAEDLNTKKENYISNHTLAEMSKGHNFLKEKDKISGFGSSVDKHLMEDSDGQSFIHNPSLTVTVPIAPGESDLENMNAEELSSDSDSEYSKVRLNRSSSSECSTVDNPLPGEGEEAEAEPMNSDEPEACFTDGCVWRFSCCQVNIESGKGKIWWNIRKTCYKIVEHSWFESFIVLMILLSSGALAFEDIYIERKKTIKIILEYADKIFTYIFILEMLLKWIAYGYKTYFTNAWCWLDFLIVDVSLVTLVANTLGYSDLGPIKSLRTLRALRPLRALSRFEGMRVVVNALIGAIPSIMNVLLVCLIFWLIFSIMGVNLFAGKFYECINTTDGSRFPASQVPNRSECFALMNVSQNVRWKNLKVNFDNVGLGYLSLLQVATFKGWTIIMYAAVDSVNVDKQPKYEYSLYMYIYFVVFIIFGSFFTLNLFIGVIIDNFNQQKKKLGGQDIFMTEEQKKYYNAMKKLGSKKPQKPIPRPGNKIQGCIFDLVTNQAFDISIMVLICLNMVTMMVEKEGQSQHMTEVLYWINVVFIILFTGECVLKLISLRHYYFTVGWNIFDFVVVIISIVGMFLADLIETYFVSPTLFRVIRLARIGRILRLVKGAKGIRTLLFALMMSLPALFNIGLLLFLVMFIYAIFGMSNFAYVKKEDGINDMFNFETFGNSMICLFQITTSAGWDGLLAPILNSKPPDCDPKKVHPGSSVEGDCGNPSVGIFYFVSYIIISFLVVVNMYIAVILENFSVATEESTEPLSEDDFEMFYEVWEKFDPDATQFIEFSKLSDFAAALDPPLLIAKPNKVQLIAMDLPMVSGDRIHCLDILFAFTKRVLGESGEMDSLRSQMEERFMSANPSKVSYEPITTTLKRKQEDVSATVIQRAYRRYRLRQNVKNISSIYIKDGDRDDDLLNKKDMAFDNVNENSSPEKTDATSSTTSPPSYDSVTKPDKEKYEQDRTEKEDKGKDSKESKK

For orientation: IC50 means the midpoint of a concentration-inhibition curve. Lower therefore signals higher potency. As for `C#CC[C@H](N)C(=O)N[C@@H](Cc1ccc(O)cc1)C(=O)N[C@H]1CSSC[C@@H]2NC(=O)[C@@H]3CSSC[C@@H](C(=O)N[C@@H](CCCNC(=N)N)C(=O)N[C@@H](CCCCN)C(=O)N[C@@H](CCC(=O)O)C(=O)N[C@H](C(N)=O)[C@@H](C)CC)NC(=O)[C@H](Cc4c[nH]c5ccccc45)NC(=O)[C@H](CCCC)NC(=O)[C@H](CCCCN)NC(=O)[C@H](CSSC[C@H](NC(=O)[C@H]([C@@H](C)O)NC(=O)[C@H](Cc4c[nH]c5ccccc45)NC(=O)[C@H](CCCC)NC(=O)[C@H](Cc4c[nH]c5ccccc45)NC(=O)[C@H](CCCCN)NC(=O)[C@H](CCC(N)=O)NC1=O)C(=O)N[C@@H](CC(=O)O)C(=O)N[C@@H](CO)C(=O)N[C@@H](CCCCN)C(=O)N[C@@H](CCCNC(=N)N)C(=O)N[C@@H](C)C(=O)N3)NC(=O)[C@H](CCCNC(=N)N)NC(=O)[C@H](CC(C)C)NC(=O)CNC(=O)[C@H](CCC(=O)O)NC2=O`, the IC50 was 1.7 nM.

Turning to `C#CC[C@H](N)C(=O)N[C@@H](Cc1ccc(O)cc1)C(=O)N[C@H]1CSSC[C@@H]2NC(=O)[C@@H]3CSSC[C@@H](C(=O)N[C@@H](CCCNC(=N)N)C(=O)N[C@@H](CCCCN)C(=O)N[C@@H](CCC(=O)O)C(=O)N[C@H](C(N)=O)[C@@H](C)CC)NC(=O)[C@H](Cc4c[nH]c5ccccc45)NC(=O)[C@H](CC(C)C)NC(=O)[C@H](CCCCN)NC(=O)[C@H](CSSC[C@H](NC(=O)[C@H]([C@@H](C)O)NC(=O)[C@H](CCc4ccccc4)NC(=O)[C@H](CCCC)NC(=O)[C@H](Cc4c[nH]c5ccccc45)NC(=O)[C@H](CCCCN)NC(=O)[C@H](CCC(N)=O)NC1=O)C(=O)N[C@@H](CC(=O)O)C(=O)N[C@@H](CO)C(=O)N[C@@H](CCCCN)C(=O)N[C@@H](CCCNC(=N)N)C(=O)N[C@@H](C)C(=O)N3)NC(=O)[C@H](CCCNC(=N)N)NC(=O)[C@H](CC(C)C)NC(=O)CNC(=O)[C@H](CCC(=O)O)NC2=O`, it took 6.8 nM to reach half-maximal inhibition (IC50). This IC50 lies about 4-fold higher than the previous one.

The compound `C#CC[C@H](NC(=O)[C@@H](N)CCCCN)C(=O)N[C@H]1CSSC[C@@H]2NC(=O)[C@@H]3CSSC[C@@H](C(=O)N[C@@H](CCCNC(=N)N)C(=O)N[C@@H](CCCCN)C(=O)N[C@@H](CCC(=O)O)C(=O)N[C@H](C(N)=O)[C@@H](C)CC)NC(=O)[C@H](Cc4c[nH]c5ccc(Br)cc45)NC(=O)[C@H](CC(C)C)NC(=O)[C@H](CCCCN)NC(=O)[C@H](CSSC[C@H](NC(=O)[C@H]([C@@H](C)O)NC(=O)[C@H](Cc4c[nH]c5ccccc45)NC(=O)[C@H](CCCC)NC(=O)[C@H](Cc4c[nH]c5ccccc45)NC(=O)[C@H](CCCCN)NC(=O)[C@H](CCC(N)=O)NC1=O)C(=O)N[C@@H](CC(=O)O)C(=O)N[C@@H](CO)C(=O)N[C@@H](CCCCN)C(=O)N[C@@H](CCCNC(=N)N)C(=O)N[C@@H](C)C(=O)N3)NC(=O)[C@H](CCCNC(=N)N)NC(=O)[C@H](CC(C)C)NC(=O)CNC(=O)[C@H](CCC(=O)O)NC2=O` came in with an IC50 of 5.7 nM.

For the compound `C#CC[C@H](N)C(=O)N[C@@H](Cc1ccc(O)cc1)C(=O)N[C@H]1CSSC[C@@H]2NC(=O)[C@@H]3CSSC[C@@H](C(=O)N[C@@H](CCCNC(=N)N)C(=O)N[C@@H](CCCCN)C(=O)N[C@@H](CCC(=O)O)C(=O)N[C@H](C(N)=O)[C@@H](C)CC)NC(=O)[C@H](Cc4c[nH]c5c(Br)cccc45)NC(=O)[C@H](CC(C)C)NC(=O)[C@H](CCCCN)NC(=O)[C@H](CSSC[C@H](NC(=O)[C@H]([C@@H](C)O)NC(=O)[C@H](Cc4c[nH]c5ccccc45)NC(=O)[C@H](CCCC)NC(=O)[C@H](Cc4c[nH]c5ccccc45)NC(=O)[C@H](CCCCN)NC(=O)[C@H](CCC(N)=O)NC1=O)C(=O)N[C@@H](CC(=O)O)C(=O)N[C@@H](CO)C(=O)N[C@@H](CCCCN)C(=O)N[C@@H](CCCNC(=N)N)C(=O)N[C@@H](C)C(=O)N3)NC(=O)[C@H](CCCNC(=N)N)NC(=O)[C@H](CC(C)C)NC(=O)CNC(=O)[C@H](CCC(=O)O)NC2=O`, the half-inhibitory concentration (IC50) is 24 nM.

Source of the values: ChEMBL document CHEMBL4152382, “Discovery of Tarantula Venom-Derived NaV1.7-Inhibitory JzTx-V Peptide 5-Br-Trp24 Analogue AM-6120 with Systemic Block of Histamine-Induced Pruritis” (J Med Chem, 2018).
